Data taken from paper PMC8921065, “Combination of terbium-161 with somatostatin receptor antagonists—a potential paradigm shift for the treatment of neuroendocrine neoplasms” (European Journal of Nuclear Medicine and Molecular Imaging, 2021).

Assay: in vivo
Details: mouse, iv, 0.2 nmol/mouse, total radioactivity

Measured: tissue uptake at 24 h

C[C@@H](O)[C@@H]1NC(=O)[C@H](CCCCN)NC(=O)[C@@H](Cc2ccc(NC(N)=O)cc2)NC(=O)[C@H](Cc2ccc(O)cc2)NC(=O)[C@H](NC(=O)[C@H](Cc2ccc(Cl)cc2)NC(=O)CN2CCN(CC(=O)O)CCN(CC(=O)O)CCN(CC(=O)O)CC2)CSSC[C@@H](C(=O)N[C@H](Cc2ccc(O)cc2)C(N)=O)NC1=O [metal not drawn]
≤ 0.1 %ID/g: blood | heart | muscle
